7 molecules from US20210395210A1, “INHIBITION OF BACTERIAL CHAPERONIN SYSTEMS” (THE TRUSTEES OF INDIANA UNIVERSITY, priority 2018, published 2021) can be followed below.

Read-outs that look alike come from different tables or passages of the source.

One assay concerns the target T1, human HSP60/10 (Homo sapiens, UniProt P10809).
T1 construct: octa-Histidine tag (TEV-cleavable) (N, cleaved yes); made in house; host or cells: HSP60 in E. coli Rosetta 2 (DE3); HSP10 in Rosetta 2 (DE3) pLysS
The experiment in a line: HSP60/10-mediated dMDH refolding assay. It counts as biochemical. The procedure: Reagent preparation: For these assays, four primary reagent stocks were prepared: 1) GroEUES-dMDH or HSP60/10-dMDH binary complex stock; 2) ATP initiation stock; 3) EDTA quench stock; 4) MDH enzymatic assay stock. Denatured MDH (dMDH) was prepared by 2-fold dilution of MDH (5 mg/ml, soluble pig heart MDH from Roche, product #10127248001) with denaturant buffer (7 M guanidine-HCl, 200 mM Tris, pH 7.4, and 50 mM DTT). MDH was completely denatured by incubating at room temperature for 45 min. The binary complex solutions were prepared by slowly adding the dMDH stock to a stirring stock with GroEL (or HSP60) in folding buffer (50 mM Tris-HCl, pH 7.4, 50 mM KCl, 10 mM MgCl2, and 1 mM DTT), followed by addition of GroES (or HSP10). The binary complex stocks were prepared immediately prior to dispensing into the assay plates and had final protein concentrations of 83.3 nM GroEL (Mr 800 kDa) or HSP60 (Mr 400 kDa), 100 nM GroES or HSP10 (Mr 70 kDa), and 20 nM dMDH in folding buffer. For the ATP initiation stock, ATP solid was diluted into folding buffer to a final concentration of 2.5 mM. Quench solution contained 600 mM EDTA (pH 8.0). The MDH enzymatic assay stock consisted of 20 mM sodium mesoxalate and 2.4 mM NADH in reaction buffer (50 mM Tris-HCl, pH 7.4, 50 mM KCl, and 1 mM DTT).
Assay Protocol: First, 30 μL aliquots of the GroEL/ES-dMDH or HSP60/10-dMDH binary complex stocks were dispensed into clear, 384-well polystyrene plates. […] The chaperonin-mediated refolding cycles were initiated by addition of 20 μL of ATP stock (reagent concentrations during refolding cycle: 50 nM GroEL or HSP60, 60 nM GroES or HSP10, 12 nM dMDH, 1 mM ATP, and compounds of 100 μM to 46 nM, 3-fold dilution series). The refolding reactions were incubated at 37° C. […] Next, the assay was quenched by addition of 10 μL of the EDTA to final concentration of 100 mM. […] A340 nm measurements were recorded at 0.5 minutes (start point) and at successive time points until the amount of NADH consumed reached ˜90% (end point, generally between 20-35 minutes). The differences between the start and end point A340 values were used to calculate the % inhibition of the GroEL/ES or HSP60/10 machinery by the compounds. […] Results presented represent the averages of IC50 values obtained from at least quadriplicate (duplicate of duplicate) replicates.

In assay [1] the test system is Enterococcus faecium (ATCC 19434). The experiment in a line: Bacterial proliferation assay, E. faecium. It counts as cell-based. From the text:
(§1) Bacterial Strains: Enterococcus faecium—(Orla-Jensen) Schleifer and Kilpper-Balz strain NCTC 7171 (ATCC 19434); Drug sensitive Staphylococcus aureus—Rosenbranch strain Seattle 1945 (ATCC 25923); Methicillin resistant S. aureus (MRSA)—Rosenbach strain HPV107 (ATCC BAA-44); Klebsiella Pneumonia—(Schroeter) Trevisan strain NCTC 9633 (ATCC 13883); Acinetobacter baumannii—Bouvet and Grimont strain 2208 (ATCC 19606); Pseudomonas aeruginosa—(Schroeter) Migula strain NCTC 10332 (ATCC 10145); Enterobacter cloacae—E. cloacae, subsp. cloacae (Jordan) Hormaeche and Edwards strain CDC 442-68 (ATCC 13047).
(§2) Growth Media: All bacteria were grown in Brain Heart Infusion (BHI) broth/agar (Becton, Dickinson and Company). All liquid cultures were grown in BHI media supplemented with 25 mg/L Ca^2+ and 12.5 mg/L Mg^2+ to mimic free physiological concentrations of these cations. A 10 mg/mL Ca^2+ stock solution was prepared by dissolving 3.68 g of CaCl2.2H2O in 100 mL of deionized water, and a 10 mg/mL Mg^2+ stock solution was prepared by dissolving 8.36 g of MgCl2.6H2O in 100 mL deionized water. Both stock solutions were filter-sterilized using 0.2 μm pore size cellulose-acetate filters. 2.5 mL of the sterile 10 mg/mL Ca^2+ stock and 1.25 mL of the sterile 10 mg/mL Mg^2+ stock solutions were added per 1 L of autoclaved BHI medium to obtain 25 mg/L Ca^2+ and 12.5 mg/L Mg^2+ ions, respectively.
(§3) General Assay Protocol: Stock bacterial cultures were streaked onto BHI agar plates and grown overnight at 37° C. Fresh aliquots of broth were inoculated with single bacterial colonies and the cultures were grown overnight at 37° C. with shaking (240 rpm) in cation adjusted BHI media. The following morning, the overnight cultures were sub-cultured (1:5 dilution) into fresh aliquots of cation adjusted BHI media and grown at 37° C. for 1-2 hours with shaking. After 2 h, cultures were diluted into fresh media to achieve final OD600 readings of 0.017. Aliquots of these diluted cultures (30 μL) were added to clear, flat-bottom, 384-well polystyrene plates that were stamped with 0.5 μL of test compounds in 20 μL media. […] Plates were sealed with “Breathe Easy” oxygen permeable membranes (Diversified Biotech) and left to incubate at 37° C. without shaking (stagnant assay). OD600 nm readings were taken at either 6-8 h (S. aureus, MRSA, K. pneumonia, E. cloacae, and P. aeruginosa) or 24 h (E. faecium and A. baumannii). A second set of baseline control plates were prepared analogously, but without any bacteria added, to correct for possible compound absorbance and/or precipitation. Plates were then read at 600 nm using a Molecular Devices SpectraMax Plus384 microplate reader. […] Results presented represent the averages of EC50 values obtained from at quadriplicate (duplicate of duplicate) replicates.

Assay [2] has as its system Drug sensitive Staphylococcus aureus (ATCC 25923). The experiment in a line: Bacterial proliferation assay, drug sensitive S. aureus. It counts as cell-based.
Excerpt: as §1, §2, §3

The test system of assay [3] is Pseudomonas aeruginosa (ATCC 10145). The experiment in a line: Bacterial proliferation assay, P. aeruginosa. It counts as cell-based.
Excerpt: as §1, §2, §3

The subject of assay [4] is Enterobacter cloacae (ATCC 13047). The experiment in a line: Bacterial proliferation assay, E. cloacae. It counts as cell-based.
Excerpt: as §1, §2, §3

Setting [5] is: ATCC19434, 24 h, read-out: Bacterial Proliferation EC50 E. faecium.
Where [6] appears, read: ATCC19434, read-out: log(EC50) Bacterial Proliferation Assay C. faecium (converted).
The mark [7] stands for this setting: ATCC25923, read-out: Bacterial Proliferation EC50 S. aureus Sensitive.
[8] abbreviates: ATCC25923, read-out: log(EC50) Bacterial Proliferation Assay S. aureus Sensitive (converted).
[9] abbreviates: ATCC10145, read-out: Bacterial Proliferation EC50 P. aeruginosa.
[10] abbreviates: ATCC10145, read-out: log(EC50) Bacterial Proliferation Assay P. aeruginosa (converted).
[11] abbreviates: ATCC13047, read-out: Bacterial Proliferation EC50 E. cloacae.
The mark [12] stands for this setting: ATCC13047, read-out: log(EC50) Bacterial Proliferation Assay E. cloacae (converted).
Where [13] appears, read: human HSP60/10-dMDH refolding assay, read-out: HSP60/10-dMDH Refolding IC50.
The mark [14] stands for this setting: log(IC50) ± standard deviation, human HSP60/10-dMDH refolding assay, read-out: HSP60/10-dMDH Refolding Assay log(IC50) (converted).
The mark [15] stands for this setting: ATCC19434, OD600 at 24 h, read-out: Bacterial Proliferation EC50 E. faecium.
Setting [16] is: ATCC19434, log of EC50 (μM scale), with standard deviation, read-out: log(EC50) Bacterial Proliferation Assay C. faecium (converted).
Where [17] appears, read: ATCC25923, OD600 at 6-8 h, read-out: Bacterial Proliferation EC50 S. aureus Sensitive.
Where [18] appears, read: ATCC25923, log of EC50 (μM scale), with standard deviation, read-out: log(EC50) Bacterial Proliferation Assay S. aureus Sensitive (converted).
[19] abbreviates: ATCC10145, OD600 at 6-8 h, read-out: Bacterial Proliferation EC50 P. aeruginosa.
[20] abbreviates: ATCC10145, log of EC50 (μM scale), with standard deviation, read-out: log(EC50) Bacterial Proliferation Assay P. aeruginosa (converted).
The mark [21] stands for this setting: ATCC13047, OD600 at 6-8 h, read-out: Bacterial Proliferation EC50 E. cloacae.
Setting [22] is: ATCC13047, log of EC50 (μM scale), with standard deviation, read-out: log(EC50) Bacterial Proliferation Assay E. cloacae (converted).

T1 sequence (P10809 27-573): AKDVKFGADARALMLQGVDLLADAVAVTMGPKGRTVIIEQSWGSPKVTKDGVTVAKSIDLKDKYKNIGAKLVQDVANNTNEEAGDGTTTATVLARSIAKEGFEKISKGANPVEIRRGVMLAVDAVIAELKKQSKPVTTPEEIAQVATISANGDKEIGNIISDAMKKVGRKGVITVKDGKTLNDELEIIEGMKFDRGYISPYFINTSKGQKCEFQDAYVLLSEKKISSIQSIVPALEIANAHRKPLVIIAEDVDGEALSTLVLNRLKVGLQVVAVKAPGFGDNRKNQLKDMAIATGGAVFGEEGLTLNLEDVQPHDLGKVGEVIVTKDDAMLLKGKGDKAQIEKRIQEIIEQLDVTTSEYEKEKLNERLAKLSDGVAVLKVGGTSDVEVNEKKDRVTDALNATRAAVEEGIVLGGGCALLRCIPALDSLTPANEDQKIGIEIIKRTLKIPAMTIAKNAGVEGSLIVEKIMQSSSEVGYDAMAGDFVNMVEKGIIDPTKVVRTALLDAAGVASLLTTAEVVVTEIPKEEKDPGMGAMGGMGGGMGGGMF

Consider `CN[C@H](CC(C)C)C(=O)N[C@H]1C(=O)N[C@@H](CC(N)=O)C(=O)N[C@H]2C(=O)N[C@H]3C(=O)N[C@H](C(=O)N[C@H](C(=O)O)c4cc(O)cc(O)c4-c4cc3ccc4O)[C@H](O)c3ccc(c(Cl)c3)Oc3cc2cc(c3O[C@@H]2O[C@H](CO)[C@@H](O)[C@H](O)[C@H]2O[C@H]2C[C@](C)(N)[C@H](O)[C@H](C)O2)Oc2ccc(cc2Cl)[C@H]1O` [Vancomycin, vancomycin, reference compound], for which, at human HSP60/10, the IC50 was over 100 µM. The “HSP60/10-dMDH Refolding Assay log(IC50)” value at human HSP60/10 (log(IC50) ± standard deviation, human HSP60/10-dMDH refolding assay) is given as over 2. Further, the EC50 in assay [1] (setting [5]) was 0.6 µM; in assay [1] (setting [6]), 0.589 µM; in assay [2] (setting [7]), 0.67 µM; in assay [2] (ATCC25923, read-out: S. aureus Proliferation & Biofilm Assay EC50 Planktonic Growth), 0.67 µM; in assay [2] (setting [8]), 0.661 µM; in assay [3] (setting [9]) it was over 100 µM. For the same molecule, the EC50 in assay [3] (setting [10]), in assay [4] (setting [11]) and in assay [4] (setting [12]) was over 100 µM throughout.
As for `O=C(Nc1cccc(Cl)c1)c1cc(Br)cc(Br)c1O` [Compound 9, 3,5-Dibromo-N-(3-chlorophenyl)-2-hydroxybenzamide], the IC50 on human HSP60/10 (setting [13]) was 29 µM; at human HSP60/10 (setting [14]) it was 28.8 µM. In addition, the EC50 in assay [1] (setting [5]) was 73 µM; in assay [1] (setting [6]), 72.4 µM; in assay [2] (setting [7]) it was 0.66 µM; in assay [2] (setting [8]), 0.661 µM; in assay [3] (setting [9]), over 100 µM; in assay [3] (setting [10]), over 100 µM. The EC50 was 78 µM in assay [4] (setting [11]) and 77.6 µM in assay [4] (setting [12]).
In the case of `O=C(Nc1ccccc1)c1cc(Br)cc(Br)c1` [Compound 26, 3,5-Dibromo-N-phenylbenzamide], the IC50 at human HSP60/10 (setting [13]) and on human HSP60/10 (setting [14]) was over 100 µM throughout. In addition, the EC50 in assay [1] (setting [15]), in assay [1] (setting [16]), in assay [2] (setting [17]), in assay [2] (setting [18]), in assay [3] (setting [19]) and in assay [3] (setting [20]) was over 100 µM each time. The EC50 in assay [4] (setting [21]) and in assay [4] (setting [22]) was over 100 µM in each case.
Regarding `O=C(Nc1ccc(Sc2nc3ccccc3s2)c(Cl)c1)c1cc(Br)ccc1O` [Compound 3, N-(4-(Benzo[d]thiazol-2-ylthio)-3-chlorophenyl)-5-bromo-2-hydroxybenzamide], the IC50 at human HSP60/10 (setting [13]) and on human HSP60/10 (setting [14]) was over 100 µM each time. Besides, the EC50 in assay [1] (setting [5]) is 15 µM; in assay [1] (setting [6]), 14.8 µM; in assay [2] (setting [7]) it was 0.12 µM; in assay [2] (setting [8]) it was 0.117 µM; in assay [3] (setting [9]), over 100 µM; in assay [3] (setting [10]) it was over 100 µM. In addition, the EC50 in assay [4] (setting [11]) and in assay [4] (setting [12]) was over 100 µM throughout.
For the molecule `O=C(Nc1ccc(Sc2nc3ccccc3s2)c(Cl)c1)c1cccc(Br)c1` [Compound 18, N-(4-(Benzo[d]thiazol-2-ylthio)-3-chlorophenyl)-3-bromobenzamide], the IC50 at human HSP60/10 (setting [13]) and on human HSP60/10 (setting [14]) was over 100 µM each time. Moreover, the EC50 in assay [1] (setting [15]), in assay [1] (setting [16]), in assay [2] (setting [17]), in assay [2] (setting [18]), in assay [3] (setting [19]) and in assay [3] (setting [20]) was over 100 µM throughout. Also, the EC50 in assay [4] (setting [21]) and in assay [4] (setting [22]) was over 100 µM each time.
With `COc1c(Br)cccc1C(=O)Nc1ccccc1` [Compound 42, 3-Bromo-2-methoxy-N-phenylbenzamide], the IC50 at human HSP60/10 (setting [13]) and on human HSP60/10 (setting [14]) was over 100 µM each time. Moreover, the EC50 in assay [1] (setting [15]), in assay [1] (setting [16]), in assay [2] (setting [17]), in assay [2] (setting [18]), in assay [3] (setting [19]) and in assay [3] (setting [20]) was over 100 µM in each case. The EC50 in assay [4] (setting [21]) and in assay [4] (setting [22]) was over 100 µM in each case.
As for `O=C(Nc1cccc(Cl)c1)c1ccccc1` [Compound 25, N-(3-Chlorophenyl)benzamide], the IC50 on human HSP60/10 (setting [13]) and at human HSP60/10 (setting [14]) was over 100 µM in each case. The EC50 in assay [1] (setting [15]), in assay [1] (setting [16]), in assay [2] (setting [17]), in assay [2] (setting [18]), in assay [3] (setting [19]) and in assay [3] (setting [20]) was over 100 µM throughout. Moreover, the EC50 in assay [4] (setting [21]) and in assay [4] (setting [22]) was over 100 µM in each case.
